Test results: patent publication US20140140952A1, “D-Alanine Ester of Sp-Nucleoside Analog” (IDENIX PHARMACEUTICALS, INC., priority 2012, published 2014)

Tests used:
[1] = Stability in human intestinal microsomes; assay type: in vitro ADME; settings: human intestinal microsomes 1.0 mg/mL, 10 μM, NADPH, 60 min
Description: (§1) Stability of test compounds was determined in subcellular fractions (microsomes and S9) of human liver and intestine in duplicate for each matrix. Pooled liver and intestinal microsomal, intestinal and liver S9 proteins (1.0 mg/mL), suspended in incubation buffer (100 mM potassium phosphate, pH 7.4, 5 mM MgCl2, and 0.1 mM EDTA), were preincubated for 5 min at 37° C. with 10 μM of a test compound from a 10 mM stock solution in DMSO (final DMSO concentration was 0.1%); the reaction was initiated by the addition of NADPH (3 mM final concentration). At specific times (0 and 60 min), 0.1 mL samples were taken and the reaction terminated by the addition of 4 volumes of stop solution (acetonitrile with 500 ng/mL carbutamide as an internal standard). The samples were vortexed for 30 sec and then centrifuged at 16,000 g for 10 min. Aliquots of supernatants (100 μL each) were transferred to 96 deep-well plates preloaded with 100 μL distilled water and analyzed after mixing by LC-MS/MS. The MS peak area ratio of the test compound versus the internal standard was calculated and percent unchanged test compound over 60 minutes was calculated using this ratio.

[2] = Liver pharmacokinetics (triphosphate) following a single oral dose in CD-1 mice; assay type: in vivo; settings: CD-1 male mice, single oral dose 10 mg/kg for I or 25 mg/kg for II in PEG 200; liver 2′-methyl-2′-fluorouridine triphosphate; 4, 12, 24 hours
Description: Liver samples were analyzed for the active species 2′-methyl-2′-fluorouridine triphosphate (2′-Me-2′-F-U TP) by LC-MS/MS. […] Internal standard solution was added to the homogenate followed by neutralization with 20% ammonium hydroxide solution and addition of 500 μL 1% formic acid. The tissue samples were extracted by weak anion exchange solid phase extraction (SPE). Post extraction, the eluates were evaporated under nitrogen, followed by reconstitution before injection onto the LC-MS/MS system. […] The calibration range was 10 to 10000 pmol/mL in mouse liver homogenate (50 to 50000 pmol/g of mouse liver).

HCV genotype 1b replicon = test: HCV replicon assay (Zluc luciferase reporter); assay type: cell-based; settings: Hepatitis C virus, Zluc cells, 72 hours
Description: Huh-7-derived cell line (Zluc) that harbors an HCV genotype 1b replicon and a luciferase reporter gene was grown in Dulbecco's Modified Eagle Medium (DMEM) supplemented with 10% fetal bovine serum, 2 mM GlutaMAX, 1% MEM nonessential amino acids, 100 IU/mL penicillin, 100 μg/mL streptomycin, and 0.5 mg/mL Geneticin® (G418). For dose response testing the cells were seeded in 96-well plates at 7.5×10^3 cells per well in a volume of 50 μL, and incubated at 37° C./5% CO2. Drug solutions were made up freshly in Huh-7 media as 2× stocks. […] were prepared from these stocks in DMEM without G418. At least three hours after Zluc cells were seeded, drug treatment was initiated by adding 50 μL of drug dilutions to the plates in duplicate. Final concentrations of drug ranged from 100 μM to 0.0000512 μM. Cells were then incubated at 37° C./5% CO2. […] For this, media was removed from the plates via gentle tapping. Fifty microliters of ONE-glo luciferase assay reagent was added to each well. The plates were shaken gently for 3 min at room temperature and luminescence was measured on a Victor^3 V 1420 multilabel counter (Perkin Elmer) with a 1 second read time using a 700 nm cut-off filter. The EC50 values were calculated from dose response curves from the resulting best-fit equations determined by Microsoft Excel and XLfit 5.2 software. […]

[3] = Plasma pharmacokinetics following a single oral dose in CD-1 mice; assay type: in vivo; settings: CD-1 male mice, single oral dose 10 mg/kg for I or 25 mg/kg for II in PEG 200; plasma 2′-methyl-2′-fluorouridine; 4, 12, 24 hours
Description: Plasma samples were analyzed for 2′-methyl-2′-fluorouridine (2′-Me-2′-F-U) by LC-MS/MS. The internal standard (IS) was D3-2′-F-2′-Me-G. For protein precipitation and extraction, each plasma sample (50 μL) was treated with 500 μL of 0.2% formic acid in acetonitrile and 20 μL of the internal standard working solution. After vortexing and centrifugation, 500 μL of the sample extracts were transferred to a new plate, dried under N2 at ˜28° C. and reconstituted with 75 μL of 0.2% FA in water. The extracts were chromatographed on an Aquasil C18 column using a gradient system of 0.2% formic acid in water and acetonitrile. The analytes were detected and quantified by tandem mass spectrometry in positive ion mode on an MDS Sciex API5000 equipped with a Turbo Ionspray® interface. The calibration range was 0.500 (LLOQ) to 200 ng/mL in mouse plasma.

[4] = Cytotoxicity evaluation, CellTiter-Blue Cell Viability Assay; assay type: cell-based; settings: human, Zluc cells (Huh-7-derived cell line), read-out: HCV Replicon CC50
Description: For cytotoxicity evaluation, Zluc cells were treated with compound as described herein, and cell viability was monitored using the CellTiter-Blue Cell Viability Assay (Promega) by adding 20 μL of the assay solution to each well. The plates were then incubated at 37° C./5% CO2 for at least 3 hours. Fluorescence was detected in plates using excitation and emission wavelengths of 531 and 595 nm, respectively, in a Victor^3 V 1420 multilabel counter (Perkin Elmer) and CC50 values were determined using Microsoft Excel and XLfit 5.2 software.

[5] = Stability in human liver microsomes; assay type: in vitro ADME; settings: human liver microsomes 1.0 mg/mL, 10 μM, NADPH, 60 min
Description: as §1

CC(C)OC(=O)[C@@H](C)N[P@](=O)(OCC1O[C@@H](n2ccc(=O)[nH]c2=O)[C@](C)(F)[C@@H]1O)Oc1ccccc1 (single isomer, unassigned) [Compound (Ib), D-Alanine, N—((SP,2′R)-2′-deoxy-2′-fluoro-2′-methyl-P-phenyl-5′-uridylyl)-, 1-methylethyl ester]
Stability (expressed as percent remaining) HIM (1 hr) [1]: +++++ (80% < +++++) | Ms Liver 2′-Me-2′-F-U TP AUC (pmol · hr/g at 1 μmol/kg) [2]: +++ (400 < +++ ≦ 1000) | EC50 (HCV genotype 1b replicon): > 10 µM | Ms Plasma 2′-Me-2′-F-U AUC (pmol · hr/mL at 1 μmol/kg) [3]: ++ (100 < ++ ≦ 400) | CC50 [4]: > 50 µM | Stability (expressed as percent remaining) HLM (1 hr) [5]: +++++ (80% < +++++)

CC(C)OC(=O)[C@@H](C)N[P@@](=O)(OCC1O[C@@H](n2ccc(=O)[nH]c2=O)[C@](C)(F)[C@@H]1O)Oc1ccccc1 (single isomer, unassigned) [Compound (Ia)]
Stability (expressed as percent remaining) HIM (1 hr) [1]: +++++ (80% < +++++) | Ms Liver 2′-Me-2′-F-U TP AUC (pmol · hr/g at 1 μmol/kg) [2]: +++++ (1600 < +++++) | EC50 (HCV genotype 1b replicon): > 10 µM | Ms Plasma 2′-Me-2′-F-U AUC (pmol · hr/mL at 1 μmol/kg) [3]: +++ (400 < +++ ≦ 1000) | CC50 [4]: > 50 µM | Stability (expressed as percent remaining) HLM (1 hr) [5]: ++++ (60% < ++++ ≦ 80%)
